# Test results reported in patent US4036834A, “Derivatives of 7-(α-hydroxy-substituted pyridyl carboxamido-α p h Δ^3 -cephem-4-carboxylic acid” (Yamanouchi Pharmaceutical Co., Ltd., priority 1974, dated 1977).
# Where two headings read alike, the source gives them in different places.
# Experiments:
# [1] = test system: micrococcus flavus ATCC 10240; experiment: MIC against micrococcus flavus ATCC 10240; format: cell-based; conditions: ATCC10240
# From the text: (§1) Now, for illustrating the excellent pharmacological effects of the compounds of this invention, the values of MIC (γ/ml) of the compounds against various bacteria are shown in the following table, the compounds of this invention are shown by example numbers.
# [2] = test system: Bacillus subtilis ATCC 6633; experiment: MIC against Bacillus subtilis ATCC 6633; format: cell-based; conditions: ATCC6633
# From the text: as §1
# 14: Bacillus subtilis ATCC 6633
# [3] = test system: Klebsiella pneumoniae ATCC 10031; experiment: MIC against Klebsiella pneumoniae ATCC 10031; format: cell-based; conditions: ATCC10031
# From the text: as §1
# 8: Klebsiella pneumoniae ATCC 10031
# [4] = test system: Shigella flexnori 2a 1675; experiment: MIC against Shigella flexnori 2a 1675; format: cell-based; conditions: 2A1675
# From the text: as §1
# proteus vulgaris OX 19US = experiment: MIC against proteus vulgaris OX 19US; format: cell-based; conditions: OX19US
# From the text: as §1
# 2. proteus vulgaris OX 19US
# [5] = test system: staphylococcus aureus 209P; experiment: MIC against staphylococcus aureus 209P; format: cell-based
# From the text: as §1
# 16: staphylococcus aureus 209P
# [6] = test system: staphylococcus Shimanishi; experiment: MIC against staphylococcus Shimanishi; format: cell-based
# From the text: as §1
# 17. staphylococcus Shimanishi
# Shigella sonnei II 37148 = experiment: MIC against Shigella sonnei II 37148; format: cell-based; conditions: II37148
# From the text: as §1
# salmonella typhi H901W = experiment: microbe, parasite or virus in culture; format: cell-based; conditions: Salmonella enterica
# Staphylococcus Onuma = experiment: MIC against Staphylococcus Onuma; format: cell-based
# From the text: as §1
# [7] = test system: pseudomonas aeruginosa ATCC 8689; experiment: MIC against pseudomonas aeruginosa ATCC 8689; format: cell-based; conditions: ATCC8689
# From the text: as §1
# 4: pseudomonas aeruginosa ATCC 8689
# salmonella enteritidis = experiment: MIC against salmonella enteritidis; format: cell-based; conditions: Salmonella enterica
# From the text: as §1
# 10: salmonella enteritidis
# Proteus vulgaris OXK US = experiment: MIC against Proteus vulgaris OXK US; format: cell-based
# From the text: as §1
# 1: Proteus vulgaris OXK US
# [8] = test system: bacillus megatherium 10778; experiment: MIC against bacillus megatherium 10778; format: cell-based
# From the text: as §1
# [9] = test system: escherichia coli Kauffman 0-1; experiment: MIC against escherichia coli Kauffman 0-1; format: cell-based
# From the text: as §1
# 7: escherichia coli Kauffman 0-1
# [10] = test system: Pseudomonas ovalis IAM 1002; experiment: MIC against Pseudomonas ovalis IAM 1002; format: cell-based; conditions: Pseudomonas putida, IAM1002; Pseudomonas ovalis IAM 1002; read-out: MIC
# From the text: as §1
# 6: Pseudomonas ovalis IAM 1002
# [11] = test system: proteus mirabilis IFM OM-19; experiment: MIC against proteus mirabilis IFM OM-19; format: cell-based; conditions: IFMOM19
# From the text: as §1
# 3. proteus mirabilis IFM OM-19
# [12] = test system: pseudomonas aeruginosa 99 (Gentamycin resistant); experiment: MIC against pseudomonas aeruginosa 99 (Gentamycin resistant); format: cell-based
# From the text: as §1
# 5: pseudomonas aeruginosa 99 (Gentamycin resistant)
# [13] = water solubility, naked-eye observation of solutions; format: physicochemical
# From the text: Then, the experimental results showing the excellent water solubility of the compounds of this invention are illustrated in the following table, the results being the observation results by the naked eyes of the solutions thereof in each concentration as shown in the table.
# [14] = micrococcus flavus ATCC 10240, read-out: MIC
# [15] = Bacillus subtilis ATCC 6633, read-out: MIC
# [16] = proteus vulgaris OX 19US, read-out: MIC
# [17] = staphylococcus Shimanishi, read-out: MIC
# [18] = pseudomonas aeruginosa ATCC 8689, read-out: MIC
# [19] = Proteus vulgaris OXK US, read-out: MIC
# [20] = bacillus megatherium 10778, read-out: MIC
# [21] = pseudomonas aeruginosa 99 (Gentamycin resistant), read-out: MIC
SMILES,MIC ([2]; Bacillus subtilis),MIC ([3]; Klebsiella pneumoniae),MIC [4],MIC (proteus vulgaris OX 19US; Proteus vulgaris),MIC [5],MIC ([6]; Staphylococcus),MIC (Shigella sonnei II 37148),MIC (salmonella typhi H901W),MIC (Staphylococcus Onuma; Staphylococcus),MIC ([7]; Pseudomonas aeruginosa),MIC (salmonella enteritidis; ENTERITIDIS),MIC ([9]; Escherichia coli),"MIC [1, 14]",MIC [10],"MIC [2, 15]",MIC [11],MIC (proteus vulgaris OX 19US; [16]),MIC ([5]; read-out: MIC),"MIC [6, 17]","MIC [8, 20]",also measured
"CC1=C(C(=O)O)N2C(=O)[C@@H](NC(=O)[C@H](N)c3ccccc3)[C@H]2SC1 [Cephalexin, reference compound]",0.78 µg/mL,3 µg/mL,6.25 µg/mL,30 µg/mL,1.56 µg/mL,6.25 µg/mL,6.25 µg/mL,6.25 µg/mL,12.5 µg/mL,> 100 µg/mL,6.25 µg/mL,10 µg/mL,–,–,–,–,–,–,–,–,"MIC ([1]; Micrococcus flavus): 1.56 µg/mL; MIC (Proteus vulgaris OXK US; Proteus vulgaris): 30 µg/mL; MIC ([8]; Bacillus, 10778): 0.78 µg/mL"
"CC(=O)OCC1=C(C(=O)O)N2C(=O)[C@@H](NC(=O)[C@H](N)c3ccccc3)[C@H]2SC1 [Cephaloglycin, reference compound]",–,–,3 µg/mL,–,–,–,10 µg/mL,3 µg/mL,–,–,–,–,0.3 µg/mL,> 100 µg/mL,0.3 µg/mL,100 µg/mL,100 µg/mL,1 µg/mL,3 µg/mL,1 µg/mL,"MIC ([3]; Klebsiella pneumoniae ATCC 10031, read-out: MIC): 25 µg/mL; MIC (Staphylococcus Onuma; Staphylococcus Onuma, read-out: MIC): 3 µg/mL; MIC [7, 18]: > 100 µg/mL; MIC (salmonella enteritidis; salmonella enteritidis, read-out: MIC): 3 µg/mL; MIC (Proteus vulgaris OXK US; [19]): 25 µg/mL; MIC ([12]; Pseudomonas aeruginosa): > 100 µg/mL; MIC ([9]; escherichia coli Kauffman 0-1, read-out: MIC): 100 µg/mL"
"CC(=O)OCC1=C(C(=O)O)N2C(=O)[C@@H](NC(=O)Cc3cccs3)[C@H]2SC1 [Cephalothin, reference compound]",< 0.09 µg/mL,0.78 µg/mL,6.25 µg/mL,12.5 µg/mL,0.19 µg/mL,0.39 µg/mL,6.25 µg/mL,1.56 µg/mL,0.39 µg/mL,> 100 µg/mL,0.39 µg/mL,3.13 µg/mL,–,–,–,–,–,–,–,–,MIC ([12]; Pseudomonas aeruginosa): > 100 µg/mL
"Cc1nnc(SCC2=C(C(=O)O)N3C(=O)[C@@H](NC(=O)Cn4cnnn4)[C@H]3SC2)s1 [Cephazolin, reference compound]",–,1.56 µg/mL,1.56 µg/mL,–,–,–,1.56 µg/mL,1.56 µg/mL,1.56 µg/mL,–,1.56 µg/mL,1.56 µg/mL,0.19 µg/mL,> 100 µg/mL,0.19 µg/mL,6.25 µg/mL,25 µg/mL,0.19 µg/mL,0.78 µg/mL,0.19 µg/mL,"MIC [7, 18]: > 100 µg/mL; MIC (Proteus vulgaris OXK US; Proteus vulgaris): 3.13 µg/mL; MIC [12, 21]: > 100 µg/mL"
"Nc1cc(Cl)cc(SCC2=C(C(=O)O)N3C(=O)C(NC(=O)C(NC(=O)c4cccnc4)c4ccccc4)C3SC2)n1 (stereo not drawn) [Contrast, 7-(α-nicotinoylamido-α-phenylacetamido)-3-(2-amino-4-chloropyidin-6-ylthiomethyl)-Δ ^3-cephem-carboxylic acid, reference compound]",–,–,–,–,–,–,–,–,–,–,–,–,–,–,–,–,–,–,–,–,water solubility (appearance of solution by the naked eyes) ([13]; concentration 1%): clear; water solubility (appearance of solution by the naked eyes) ([13]; concentration 5%): slightly turbid; water solubility (appearance of solution by the naked eyes) ([13]; concentration 10%): turbid; water solubility (appearance of solution by the naked eyes) ([13]; concentration 20%): gelled
"O=C(O)C1=C(CSc2ccc(S)nn2)CS[C@@H]2[C@H](NC(=O)[C@H](NC(=O)c3cnccc3O)c3ccccc3)C(=O)N12 [Example 1, 7-[D-α-(4-hydroxynicotinoylamido)-α-phenylacetamido]-3-(3-mercaptopyridazin-6-yl)thiomethyl-Δ^3-cephem-4-carboxylic acid]",–,6.25 µg/mL,6.25 µg/mL,–,–,–,12.5 µg/mL,0.39 µg/mL,6.25 µg/mL,100 µg/mL,0.39 µg/mL,6.25 µg/mL,3.13 µg/mL,25 µg/mL,0.39 µg/mL,0.39 µg/mL,0.78 µg/mL,0.39 µg/mL,1.56 µg/mL,0.39 µg/mL,"MIC (Proteus vulgaris OXK US; [19]): 0.19 µg/mL; MIC [12, 21]: 50 µg/mL"
